Tests used:
LLC murine tumor cells = experiment: In vivo antitumor activity, LLC tumor allograft, alone or with chemotherapy; details: for antitumor effect: LLC tumor in C57Bl6 mice, single agent or in combination with chemotherapy
[1] = Steady state plasma concentration from subcutaneous osmotic pumps

SMILES | antitumor effect (LLC murine tumor cells) | long term survival fraction, mice tumor free after 60 days (LLC murine tumor cells; LLC tumor, after 60 days) | median survival time (log rank test) (LLC murine tumor cells; LLC tumor, single agent or in combination with cyclophosphamide) | average tumor volume over time (LLC murine tumor cells; LLC tumor, single agent or in combination with cyclophosphamide 100 mg/kg i.p.) | steady state plasma concentration of drug ([1]; s.c. osmotic pumps, 200 uL of 30 mg/mL solution, 1 uL per hour for 8 days) [µM] | median survival time vs vehicle (log rank test) (LLC murine tumor cells; LLC tumor, single agent) | average tumor volume over time vs vehicle (fitted exponential growth curves) (LLC murine tumor cells; LLC tumor, single agent, osmotic pumps, p<0.0001) | steady state plasma concentration of drug ([1]; mouse, in vivo) [µM]
OC(CC1c2ccccc2-c2cncn21)C1CCCCC1 (stereo not drawn) [Compound 1304, 1-cyclohexyl-2-(5H-imidazo[5,1-a]isoindol-5-yl)ethanol] | significant antitumor effect | 70-80% | statistically significant difference in median survival time | very sensitive to the effects of treatment | 0.5 to 3 | – | – | –
OC(CC1c2c(F)cccc2-c2cncn21)C1CCCCC1 (stereo not drawn) [Compound 1357, 1-cyclohexyl-2-(6-fluoro-5H-imidazo[5,1-a]isoindol-5-yl)ethanol] | significant antitumor effect | – | – | – | – | statistically significant difference in median survival time | statistically significant differences | 0.5 to 3

Reference: patent US10233190B2, “IDO inhibitors” (NewLink Genetics Corporation, priority 2011, dated 2019)
